Experimental data as given in publication PMC9079959, “Substituted spirooxindole derivatives as potent anticancer agents through inhibition of phosphodiesterase 1” (RSC Advances, 2018).
Read-outs that look alike come from different tables or passages of the source.

Tests used:
[1] = system: Vero-B cells; experiment: MTT cytotoxicity assay, normal cells Vero-B; assay type: cell-based, African green monkey; conditions: 48 h
Description: (§1) The cytotoxic activity of the compounds was tested against different mammalian cancer cells, prostate carcinoma cells (PC-3), hepatocellular carcinoma (HepG2) and colon cancer cells (HCT-116). African green monkey kidney cells (Vero-B) were used as normal cells to study the selectivity towards the cancer cells. The cell lines were obtained from the American Type Culture Collection (ATCC). The cells were cultivated at 37 °C and 10% CO2 in DMEM (Lonza, Germany) medium supplemented with 10% fetal bovine serum (Lonza, Germany), 100 IU ml^−1 penicillin and 100 μg ml^−1 streptomycin (Lonza, Germany). […] The spirooxindole derivatives were solubilized in DMSO and stored at −20 °C. The viability of the cells was quantified using 3-(4,5-dimethylthiazol-2-yl)-2,5-diphenyl tetrazolium bromide (MTT), which measures the activity of mitochondrial succinate dehydrogenase in viable cells.[45,46]
(§2) The cells were seeded in 96-well plates at a concentration of 5 × 10^4 cells per ml (100 μl per well). […] DMSO was used as a negative control (0.1%). The cells were incubated for 48 h. After that, 15 μl of MTT (5 mg ml^−1 in PBS) was added to each well and incubated for another 4 h. The formazan crystals were solubilized by 100 μl of acidified SDS solution (10% SDS/0.01 N HCl in PBS). The absorbance was measured after 14 h of incubation at 37 °C and under 5% CO2 at 570 nm by using a BioTek microplate reader. Each experiment was repeated 3 times and a standard deviation was calculated (SD±). […] The growth of the cells was monitored and the images were acquired by Gx microscopes (GXMGXD202 Inverted Microscope) at 10× magnification.

[2] = system: HCT-116 cells; experiment: MTT cytotoxicity assay, colorectal cancer cell line HCT-116; assay type: cell-based; conditions: for SI (selectivity index): IC50 normal (VERO-B) / IC50 cancer (HCT-116)
Description: as §1, §2

[3] = system: PC-3 cells; experiment: MTT cytotoxicity assay, prostate cancer cell line PC-3; assay type: cell-based; conditions: for SI (selectivity index): IC50 normal (VERO-B) / IC50 cancer (PC-3)
Description: as §1, §2

[4] = system: HepG2 cells; experiment: MTT cytotoxicity assay, hepatocellular carcinoma HepG2; assay type: cell-based; conditions: for IC50: Homo sapiens, HepG2; for SI (selectivity index): IC50 normal (VERO-B) / IC50 cancer (HepG2)
Description: as §1, §2

[5] = Homo sapiens, HCT-116, MTT, 48 h, ± SD of 3 experiments, read-out: HCT-116 (IC50)
[6] = Homo sapiens, HCT-116, MTT, 48 h, read-out: HCT-116 (IC50, μg ml^−1)
[7] = Homo sapiens, PC-3, MTT, 48 h, ± SD of 3 experiments, read-out: PC-3 (IC50)
[8] = Homo sapiens, PC-3, MTT, 48 h, read-out: PC-3 (IC50, μg ml^−1)
[9] = MTT, 48 h, ± SD of 3 experiments, read-out: HepG2 (IC50)
[10] = MTT, 48 h, read-out: HepG2 (IC50, μg ml^−1)

In the case of `O=C(c1c[nH]c2ccccc12)[C@@H]1C(c2ccc(F)cc2)[C@@H]2CCCN2[C@@]12C(=O)Nc1ccccc12` (stereo partly drawn) [4g, (2′R,3S,7a′S)-1′-(4-Fluorophenyl)-2′-(1H-indole-3-carbonyl)-1′,2′,5′,6′,7′,7a′-hexahydrospiro[indoline-3,3′-pyrrolizin]-2-one], the IC50 ([1]; Chlorocebus sabaeus, Vero B) is reported as 40 µM, the melting point is reported as 144 to 146 °C and the IC50 [2, 5] is reported as 16 ± 1 µM. For the same molecule, the IC50 [2, 6] was 7.4 µg/mL, the “SI (selectivity index)” value [2] was 2.5 and the IC50 [3, 7] was 16.3 ± 30 µM. The IC50 [3, 8] was 7.6 µg/mL, the “SI (selectivity index)” value [3] was 2.5 and the IC50 [4, 9] was 20 ± 2 µM. For the same molecule, the IC50 [4, 10] was 9.3 µg/mL and the “SI (selectivity index)” value [4] was 2.
For `O=C(c1c[nH]c2ccccc12)[C@@H]1C(c2ccco2)[C@@H]2CCCN2[C@@]12C(=O)Nc1ccccc12` (stereo partly drawn) [4m, (2′R,3S,7a′S)-1′-(Furan-2-yl)-2′-(1H-indole-3-carbonyl)-1′,2′,5′,6′,7′,7a′-hexahydrospiro[indoline-3,3′-pyrrolizin]-2-one], the IC50 ([1]; Chlorocebus sabaeus, Vero B) was 50 µM, the melting point was 172 to 174 °C and the IC50 [2, 5] was 29 ± 2 µM. The IC50 [2, 6] was 12.7 µg/mL, the “SI (selectivity index)” value [2] was 1.7 and the IC50 [3, 7] was 26 ± 1.7 µM. For the same molecule, the IC50 [3, 8] was 11.3 µg/mL, the “SI (selectivity index)” value [3] was 1.9 and the IC50 [4, 9] was 40 ± 5 µM. For the same molecule, the IC50 [4, 10] was 17.5 µg/mL and the “SI (selectivity index)” value [4] was 1.3.
Work on `Cc1cccc(C2[C@@H](C(=O)c3c[nH]c4ccccc34)[C@]3(C(=O)Nc4ccccc43)N3CCC[C@@H]23)c1` (stereo partly drawn) [4i, (2′R,3S,7a′S)-2′-(1H-Indole-3-carbonyl)-1′-(m-tolyl)-1′,2′,5′,6′,7′,7a′-hexahydrospiro[indoline-3,3′-pyrrolizin]-2-one] yielded an IC50 ([1]; Chlorocebus sabaeus, Vero B) of 15 µM, a melting point of 141 to 143 °C and an IC50 [2, 5] of 7 ± 0.2 µM. The IC50 [2, 6] was 3.2 µg/mL, the “SI (selectivity index)” value [2] was 2.1 and the IC50 [3, 7] was 7 ± 0.6 µM. The IC50 [3, 8] was 3.2 µg/mL, the IC50 [4, 9] was 7 ± 0.4 µM and the IC50 [4, 10] was 3.2 µg/mL. The “SI (selectivity index)” value [4] was 2.1.
`O=C(c1c[nH]c2ccccc12)[C@@H]1C(c2ccc(Br)cc2)[C@@H]2CCCN2[C@@]12C(=O)Nc1ccccc12` (stereo partly drawn) [4f, (2′R,3S,7a′S)-1′-(4-Bromophenyl)-2′-(1H-indole-3-carbonyl)-1′,2′,5′,6′,7′,7a′-hexahydrospiro[indoline-3,3′-pyrrolizin]-2-one] gave an IC50 ([1]; Chlorocebus sabaeus, Vero B) of 30 µM, a melting point of 101 to 102 °C and an IC50 [2, 5] of 21 ± 1.3 µM. The IC50 [2, 6] was 11 µg/mL, the “SI (selectivity index)” value [2] was 1.4 and the IC50 [3, 7] was 16.3 ± 2.5 µM. The IC50 [3, 8] was 8.6 µg/mL, the “SI (selectivity index)” value [3] was 1.8 and the IC50 [4, 9] was 12 ± 1.5 µM. For the same molecule, the IC50 [4, 10] was 6.3 µg/mL and the “SI (selectivity index)” value [4] was 2.5.
With `O=C(c1c[nH]c2ccccc12)[C@@H]1C(c2cccc(F)c2)[C@@H]2CCCN2[C@@]12C(=O)Nc1ccccc12` (stereo partly drawn) [4h, (2′R,3S,7a′S)-1′-(3-Fluorophenyl)-2′-(1H-indole-3-carbonyl)-1′,2′,5′,6′,7′,7a′-hexahydrospiro[indoline-3,3′-pyrrolizin]-2-one] the IC50 ([1]; Chlorocebus sabaeus, Vero B) was 18 µM, the melting point was 149 to 151 °C and the IC50 [2, 5] was 15 ± 1.4 µM. For the same molecule, the IC50 [2, 6] was 7 µg/mL, the “SI (selectivity index)” value [2] was 1.2 and the IC50 [3, 7] was 11.5 ± 11.5 µM. For the same molecule, the IC50 [3, 8] was 5.4 µg/mL, the “SI (selectivity index)” value [3] was 1.6 and the IC50 [4, 9] was 14 ± 0.22 µM. For the same molecule, the IC50 [4, 10] was 6.5 µg/mL and the “SI (selectivity index)” value [4] was 1.3.
For `O=C(c1c[nH]c2ccccc12)[C@@H]1[C@@H](c2ccc(C(F)(F)F)cc2)[C@@H]2CCCN2[C@]12C(=O)Nc1ccccc12` [4k], the IC50 ([1]; Chlorocebus sabaeus, Vero B) was 22 µM, the melting point was 153 to 155 °C and the IC50 [2, 5] was 9 ± 0.5 µM. For the same molecule, the IC50 [2, 6] was 4.6 µg/mL, the “SI (selectivity index)” value [2] was 2.4 and the IC50 [3, 7] was 9 ± 0.2 µM. It also gave an IC50 [3, 8] of 4.6 µg/mL, an IC50 [4, 9] of 10 ± 1.25 µM and an IC50 [4, 10] of 5.2 µg/mL. For the same molecule, the “SI (selectivity index)” value [4] was 2.2.
With `Cc1ccc(C2[C@@H](C(=O)c3c[nH]c4ccccc34)[C@]3(C(=O)Nc4ccccc43)N3CCC[C@@H]23)cc1` (stereo partly drawn) [4b, (2′R,3S,7a′S)-2′-(1H-Indole-3-carbonyl)-1′-(p-tolyl)-1′,2′,5′,6′,7′,7a′-hexahydrospiro[indoline-3,3′-pyrrolizin]-2-one] the IC50 ([1]; Chlorocebus sabaeus, Vero B) was 26 µM, the melting point was 174 to 176 °C and the IC50 [2, 5] was 21 ± 2 µM. For the same molecule, the IC50 [2, 6] was 9.7 µg/mL, the “SI (selectivity index)” value [2] was 1.2 and the IC50 [3, 7] was 16.3 ± 2 µM. The IC50 [3, 8] was 7.5 µg/mL, the “SI (selectivity index)” value [3] was 1.6 and the IC50 [4, 9] was 11.8 ± 2 µM. The IC50 [4, 10] was 5.4 µg/mL and the “SI (selectivity index)” value [4] was 2.2.
For `COc1ccc(C2[C@@H](C(=O)c3c[nH]c4ccccc34)[C@]3(C(=O)Nc4ccccc43)N3CCC[C@@H]23)cc1` (stereo partly drawn) [4e, (2′R,3S,7a′S)-2′-(1H-Indole-3-carbonyl)-1′-(4-methoxyphenyl)-1′,2′,5′,6′,7′,7a′-hexahydrospiro[indoline-3,3′-pyrrolizin]-2-one], the IC50 ([1]; Chlorocebus sabaeus, Vero B) was 26 µM, the melting point was 122 to 124 °C and the IC50 [2, 5] was 26 ± 2 µM. For the same molecule, the IC50 [2, 6] was 12.4 µg/mL, the “SI (selectivity index)” value [2] was 1 and the IC50 [3, 7] was 15.5 ± 2 µM. For the same molecule, the IC50 [3, 8] was 7.4 µg/mL, the “SI (selectivity index)” value [3] was 1.7 and the IC50 [4, 9] was 17.3 ± 3 µM. The IC50 [4, 10] was 8.3 µg/mL and the “SI (selectivity index)” value [4] was 1.5.
With `O=C(c1c[nH]c2ccccc12)[C@@H]1C(c2ccc(Cl)cc2)[C@@H]2CCCN2[C@@]12C(=O)Nc1ccccc12` (stereo partly drawn) [4c, (2′R,3S,7a′S)-1′-(4-Chlorophenyl)-2′-(1H-indole-3-carbonyl)-1′,2′,5′,6′,7′,7a′-hexahydrospiro[indoline-3,3′-pyrrolizin]-2-one] the IC50 ([1]; Chlorocebus sabaeus, Vero B) was 22 µM, the melting point was 165 to 167 °C and the IC50 [2, 5] was 20 ± 1.5 µM. The IC50 [2, 6] was 9.6 µg/mL, the “SI (selectivity index)” value [2] was 1.1 and the IC50 [3, 7] was 11.8 ± 1.3 µM. For the same molecule, the IC50 [3, 8] was 5.7 µg/mL, the “SI (selectivity index)” value [3] was 1.9 and the IC50 [4, 9] was 8 ± 0.5 µM. The IC50 [4, 10] was 3.8 µg/mL and the “SI (selectivity index)” value [4] was 2.8.
Molecule `O=C(c1c[nH]c2ccccc12)[C@@H]1C(c2cccc(Br)c2)[C@@H]2CCCN2[C@@]12C(=O)Nc1ccccc12` (stereo partly drawn) [4j, (2′R,3S,7a′S)-1′-(3-Bromophenyl)-2′-(1H-indole-3-carbonyl)-1′,2′,5′,6′,7′,7a′-hexahydrospiro[indoline-3,3′-pyrrolizin]-2-one] has an IC50 ([1]; Chlorocebus sabaeus, Vero B) of 20 µM, a melting point of 110 to 112 °C and an IC50 [2, 5] of 9 ± 0.5 µM. For the same molecule, the IC50 [2, 6] was 4.7 µg/mL, the “SI (selectivity index)” value [2] was 2.2 and the IC50 [3, 7] was 7 ± 0.2 µM. It also gave an IC50 [3, 8] of 3.7 µg/mL, an IC50 [4, 9] of 8 ± 1 µM and an IC50 [4, 10] of 4.2 µg/mL. The “SI (selectivity index)” value [4] was 2.5.
With `N.N.[Cl][Pt][Cl]` [Cisplatin, cis-diamineplatinum(II) dichloride, reference compound] the IC50 [1] was 5 µM, the “HCT-116 (IC50, μg ml^−1)” value ([2]; MTT, 48 h) was 3.8 µg/mL and the IC50 ([2]; MTT, 48 h, ± SD of 3 experiments, read-out: HCT-116 (IC50)) was 12.6 ± 0.4 µM. For the same molecule, the “PC-3 (IC50, μg ml^−1)” value ([3]; MTT, 48 h) was 1.5 µg/mL, the IC50 ([3]; MTT, 48 h, ± SD of 3 experiments, read-out: PC-3 (IC50)) was 5 ± 0.45 µM and the “HepG2 (IC50, μg ml^−1)” value ([4]; MTT, 48 h) was 1.7 µg/mL.
`COc1cc(C2[C@@H](C(=O)c3c[nH]c4ccccc34)[C@]3(C(=O)Nc4ccccc43)N3CCC[C@@H]23)cc(OC)c1OC` (stereo partly drawn) [4n, (2′R,3S,7a′S)-2′-(1H-Indole-3-carbonyl)-1′-(3,4,5-trimethoxyphenyl)-1′,2′,5′,6′,7′,7a′-hexahydrospiro[indoline-3,3′-pyrrolizin]-2-one] gave an IC50 ([1]; Chlorocebus sabaeus, Vero B) of 40 µM, a melting point of 179 to 181 °C and an IC50 [2, 5] of 20 ± 1.25 µM. For the same molecule, the IC50 [2, 6] was 11.1 µg/mL, the “SI (selectivity index)” value [2] was 2 and the IC50 [3, 7] was 17 ± 2 µM. For the same molecule, the IC50 [3, 8] was 9.4 µg/mL, the “SI (selectivity index)” value [3] was 2.4 and the IC50 [4, 9] was 28 ± 2 µM. The IC50 [4, 10] was 15.7 µg/mL and the “SI (selectivity index)” value [4] was 1.4.
